pIC50: −log10 of the molar value. Where a name gives a salt, the structure may show the parent alone. Values belong to the compound of their own block, whether it stands above or below them.
Legend:
[1] = test system: phosphodiesterase isolated from cattle heart; experiment: Inhibition of phosphodiesterase isolated from cattle heart (radioisotopic, 3H-c-AMP); type: biochemical; settings: for pIC50: cattle heart, read off from curve, 50% decrease of enzyme activity, read-out: I50 on phosphodiesterase
Method: (§1) The model experiments were performed by means of phosphodiesterase isolated from animal tissues (rat brain, cattle brain, cattle heart). The enzyme was isolated by the technique of J. Schro/ der and H. V. Richenberg [Biochem. Biophys. Acta 302, 50 (1973)] whereupon the phosphodiesterase isolated was purified according to the method of J. G. Hardman and E. W. Sutherland [J. Biol. Chem. 240, 3704 (1965)] and the activity of the purified enzyme was measured by a radioisotopic method developed by G. Po/ ch, in the presence of an excess amount of c-AMP tricium-labeled (10.1 mmoles of a c-AMP substrate containing 2.59K Bq of 3H-c-AMP), in an incubator. The measurement was first carried out without the inhibitory substance and then in the presence of 17,18-dehydro-apivincaminol-3',4',5'-trimethoxy-benzoate as an inhibitor agent, after an incubation time of 20 minutes [N.S. Arch. Pharmacol. 268, 272 (1971)]. From the test compound a 1 mmole stock solution was prepared with aqueous hydrochloric acid solution and different amounts of the stock solution were added to the enzyme preparates corresponding to 5×10^-6, 1×10^-5 and 5×10^-5 mole/lit. of the test compound. A solution of papaverine used as reference compound is added to the enzyme preparate in an analogous manner.
(§2) The tests on an enzyme isolated from cattle brain and cattle heart, resp. were carried out in an analogous way.

[2] = test system: phosphodiesterase isolated from cattle brain; experiment: Inhibition of phosphodiesterase isolated from cattle brain (radioisotopic, 3H-c-AMP); type: biochemical; settings: for pIC50: cattle brain, read off from curve, 50% decrease of enzyme activity, read-out: I50 on phosphodiesterase
Method: as §1, §2

psoriasis [3] = experiment: Clinical test of topical creams on patients suffering from psoriasis (plaque method); type: in vivo, patients (human); settings: cream with 2% active ingredient, scale 0-3
Method: The first clinical tests were carried out with preparations for topical use, e.g. ointments, creams, solutions, tinctures, pastes, aerosols, etc. containing the new compound according to the invention as an active ingredient. More particularly, creams containing 2%, 1%, 0.5%, 0.25% and […], resp. of 17,18-dehydro-apovincaminol-3',4',5'-trimethoxy-benzoate were employed.
Clinical tests were performed on patients suffering from psoriasis. During the tests the patients have not received any systemic, e.g. immunosuppressive, cytostatic or glucocorticoid treatment for their basic disease.
Groups of 5 were examined by the so-called plaque method. One side of symmetrical skin lesions was treated by a creme containing the active ingredient in the desired concentration, while on the other side a placebo was applied. The remaining psoriatic sites on the skin were subjected to other topical treatments for example with ointments containing flumethasone pivalate and salicylic acid, as active ingredient, which are widely used for the treatment of psoriasis.
The tests were started with creams having a higher active ingredient concentration and then further patients were treated with preparations containing the smallest effective active ingredient concentration.
The efficiency was evaluated upon observing three symptoms: inflammation, infiltration and desquamation (peeling). The intensity of the symptoms was qualified by scores between 0 and 3. The total number of scores served as a measure of the reduction of symptoms. The results were evaluated by methods of mathematical statistics. During the treatment undesirable side effects have never been observed.
Evaluations were made before the treatment (I), after a one-week treatment (II) and after a two-week treatment (III). The results set forth in the following table are the average number of scores (total number of scores/number of patient) for creams containing 2% of active ingredient.

[4] = test system: phosphodiesterase isolated from rat brain; experiment: Inhibition of phosphodiesterase isolated from rat brain (radioisotopic, 3H-c-AMP); type: biochemical; settings: for effect of the test compound on enzyme activity: 20 minutes incubation; for pIC50: rat brain, read off from curve, 50% decrease of enzyme activity, read-out: I50 on phosphodiesterase
Method: as §1
The activity of the solutions containing 17,18-dehydro-apovincaminol-3',4',5'-trimethoxy-benzoate and papaverine was expressed in percents of the control (enzyme solution without any inhibitory substance, 100%). The results obtained on an enzyme isolated from rat brain are as follows:
as §2

psoriasis [5] = settings: phosphodiesterase inhibitor; Voorhees et al., Arch. Derm. 104, 359 (1971); cited from earlier work
[6] = rat brain enzyme, 1 × 10^-5 mole/lit.
[7] = rat brain enzyme, 5 × 10^-5 mole/lit.
[8] = rat brain enzyme, 5 × 10^-6 mole/lit.

times more effective than papaverine ([1]; cattle heart enzyme, versus papaverine): 18 times
times more effective than papaverine ([2]; cattle brain enzyme, versus papaverine): 6 times
times more effective than papaverine ([4]; rat brain enzyme, versus papaverine): 7 times
SMILES: CC[C@]12C=CCN3CCc4c(n(c5ccccc45)C(COC(=O)c4cc(OC)c(OC)c(OC)c4)=C1)[C@@H]32 [17,18-Dehydro-apovincaminol-3',4',5'-trimethoxy-benzoate]
Average number of scores, Desquamation (psoriasis [3]; I: before the treatment): 2.0 scores
Average number of scores, Infiltration (psoriasis [3]; I: before the treatment): 2.6 scores
Average number of scores, Inflammation (psoriasis [3]; I: before the treatment): 2.8 scores
Average number of scores, Desquamation (psoriasis [3]; II: after one-week treatment): 0.8 scores
Average number of scores, Infiltration (psoriasis [3]; II: after one-week treatment): 1.6 scores
Average number of scores, Inflammation (psoriasis [3]; II: after one-week treatment): 2.2 scores
Average number of scores, Desquamation (psoriasis [3]; III: after two-week treatment): 0.2 scores
Average number of scores, Infiltration (psoriasis [3]; III: after two-week treatment): 0.6 scores
Average number of scores, Inflammation (psoriasis [3]; III: after two-week treatment): 1.6 scores

pIC50 [1]: 5.52
pIC50 [2]: 4.82
effect of the test compound on enzyme activity [4, 6]: 40.7 % of the control
effect of the test compound on enzyme activity [4, 7]: 38.6 % of the control
effect of the test compound on enzyme activity [4, 8]: 84.7 % of the control
pIC50 [4]: 5.00
SMILES: CC[C@]12C=CCN3CCc4c(n(c5ccccc45)C(COC(=O)c4cc(OC)c(OC)c(OC)c4)=C1)[C@@H]32 [17,18-dehydro-apovincaminol-3',4',5'-trimethoxy-benzoate.HCl]

SMILES: COc1ccc(Cc2nccc3cc(OC)c(OC)cc23)cc1OC [papaverine.HCl, papaverine, reference compound]
pIC50 [1]: 4.30
pIC50 [2]: 4.05
effect of the test compound on enzyme activity [4, 6]: 89.7 % of the control
effect of the test compound on enzyme activity [4, 7]: 60.5 % of the control
effect of the test compound on enzyme activity [4, 8]: 91.2 % of the control
pIC50 [4]: 4.15

SMILES: COc1ccc(Cc2nccc3cc(OC)c(OC)cc23)cc1OC [papaverine]
effect on psoriasis (psoriasis [5]): successfully influenced psoriasis

From patent US4424223A, “Polycyclic compounds containing a double bond in the D-ring pharmaceutical compositions containing them, and methods of treating psoriasis with them” (Richter Gedeon Vegyeszeti Gyar RT, priority 1981, dated 1984)
